Source: US8377949B2, “Quinazolinedione chymase inhibitors” (Boehringer Ingelheim International GmbH, priority 2007, dated 2013)

Biological target: T1, Chymase (Homo sapiens, UniProt P23946)
T1 sequence (P23946 22-247): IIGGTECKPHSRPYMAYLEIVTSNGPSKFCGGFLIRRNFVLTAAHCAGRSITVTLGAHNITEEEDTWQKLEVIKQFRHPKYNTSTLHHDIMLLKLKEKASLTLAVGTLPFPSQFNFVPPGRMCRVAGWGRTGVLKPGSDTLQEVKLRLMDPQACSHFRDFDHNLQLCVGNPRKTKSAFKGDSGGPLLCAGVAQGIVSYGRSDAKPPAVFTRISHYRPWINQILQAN
Test: In vitro Assay for Inhibition of Chymase
Type: biochemical
Details: 500 pM chymase, 100 nM rhodamine 110 peptide substrate, 1 hour at 28° C., fluorescence
Procedure: In vitro Assay for Inhibition of Chymase
Chymase assays were performed in a total volume of 15 μL in Corning black opaque 384-well microtiter plates with a non-binding surface (Coming, N.Y.). The assay buffer was comprised of 20 mM Tris HCl pH 8.0, 50 mM NaCl, 0.01% CHAPS. The test compounds were serially diluted 3-fold with neat DMSO in a 96-well polypropylene plate from a 10 mM DMSO stock to give the 10 point dose response curve. 3 μL of the resulting DMSO solution were transferred to a 384-well polypropylene plate in duplicate, and 37 μL of assay buffer was added. Chymase was added to the assay plate in 3 uL of assay buffer followed by 2 uL of the appropriate compound dilution using a PlateMate Plus (Matrix Technologies Corp., Hudson, N.H.). The reaction was initiated by the addition of 10 uL rhodamine 110, bis-(succinoyl-L-alanyl-L-alanyl-L-prolyl-L-phenylalanylamide) (American Peptides, Sunnyvale, Calif.) in assay buffer containing 150 μM tris(2-carboxyethyl)phosphine (TCEP, Pierce Chemical, Rockford, Ill.) using a Multidrop (Thermo Electron Corp., Waltham, Mass.). Final assay concentrations were 500 pM chymase, 100 nM substrate, 100 μM TCEP, and 1% DMSO. The plates were incubated at 28° C. and 80% humidity for 1 hour, at which time the fluorescence was read on a Viewlux 1430 Microplate Imager (Perkin Elmer Life Sciences, Boston, Mass.) with 485 nm excitation, 530 nm emission, and a fluorescein dichroic mirror. The percentage of control values were calculated relative to assay blanks containing complete reaction minus chymase and a 100% control containing assay buffer with 1% DMSO in place of compound. IC50 values were obtained by fitting the data using XLFit4 (IDBS Software).

Cc1cc(C)c2c(Cn3c(=O)n(C4(CC(=O)O)CCCCC4)c(=O)c4ccccc43)nsc2c1 [{1-[1-(4,6-Dimethyl-1,2-benzisothiazol-3-ylmethyl)-2,4-dioxo-1,4-dihydro-2H-quinazolin-3-yl]-cyclohexyl}-acetic acid]
IC50: 4 nM
